Key:
[1] = target: Sodium-dependent serotonin transporter (Rattus norvegicus) (UniProt P31652); experiment: Displacement of [3H]citalopram from SERT in Sprague-Dawley rat whole brain membranes at 300 nM after 1 hr by liquid scintillation spectrophotometric analysis relative to control; assay type: tissue-based; conditions: Membrane
[2] = target: T1, 5-hydroxytryptamine receptor 2C (Rattus norvegicus, UniProt P08909); experiment: biochemical
T1 sequence (P08909 whole entry): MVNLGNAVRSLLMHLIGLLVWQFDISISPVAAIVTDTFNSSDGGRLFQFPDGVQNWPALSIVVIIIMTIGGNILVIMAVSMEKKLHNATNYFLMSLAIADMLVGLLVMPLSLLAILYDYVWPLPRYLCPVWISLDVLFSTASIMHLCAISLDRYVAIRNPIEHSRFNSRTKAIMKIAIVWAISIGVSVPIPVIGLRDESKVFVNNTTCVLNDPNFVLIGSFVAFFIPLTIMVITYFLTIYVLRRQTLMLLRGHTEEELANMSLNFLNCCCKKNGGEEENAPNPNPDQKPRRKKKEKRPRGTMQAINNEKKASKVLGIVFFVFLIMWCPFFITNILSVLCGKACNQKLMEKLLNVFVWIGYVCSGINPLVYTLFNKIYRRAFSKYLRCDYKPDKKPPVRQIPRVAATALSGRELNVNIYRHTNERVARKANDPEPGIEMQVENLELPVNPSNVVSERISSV
Description: Displacement of [3H]mesulergine from 5-HT2C receptor in Sprague-Dawley rat choroid plexus membranes after 30 mins by liquid scintillation spectrophotometric analysis

[3] = target: T2, 5-hydroxytryptamine receptor 2C (Rattus norvegicus) (UniProt P08909); experiment: Displacement of [3H]mesulergine from 5-HT2C receptor in Sprague-Dawley rat choroid plexus membranes at 1000 nM after 30 mins by liquid scintillation spectrophotometric analysis relative to control; conditions: Membrane
T2 sequence (whole entry): T1 sequence (P08909 whole entry)

[4] = target: Sodium-dependent serotonin transporter (Rattus norvegicus, UniProt P31652); experiment: biochemical
Description: Displacement of [3H]citalopram from SERT in Sprague-Dawley rat whole brain membranes after 1 hr by liquid scintillation spectrophotometric analysis

Liver = experiment: Intrinsic clearance in mouse liver microsomes measured per gram of tissue at 2.5 uM after 20 mins; assay type: ADME
[5] = Apparent permeability from apical to basolateral side in vinblastine-treated human Caco2 cells at 3 to 50 uM; assay type: ADME, cell-based; conditions: Caco-2
in vitro = conditions: human, Caco-2
Description: Efflux ratio of apparent permeability from basolateral to apical over apical to basolateral side in vinblastine-treated human Caco2 cells at 3 to 50 uM

Liver microsome = experiment: Intrinsic clearance in human liver microsomes measured per gram of tissue at 2.5 uM after 20 mins; assay type: ADME

Sequence of Sodium-dependent serotonin transporter (P31652 whole entry): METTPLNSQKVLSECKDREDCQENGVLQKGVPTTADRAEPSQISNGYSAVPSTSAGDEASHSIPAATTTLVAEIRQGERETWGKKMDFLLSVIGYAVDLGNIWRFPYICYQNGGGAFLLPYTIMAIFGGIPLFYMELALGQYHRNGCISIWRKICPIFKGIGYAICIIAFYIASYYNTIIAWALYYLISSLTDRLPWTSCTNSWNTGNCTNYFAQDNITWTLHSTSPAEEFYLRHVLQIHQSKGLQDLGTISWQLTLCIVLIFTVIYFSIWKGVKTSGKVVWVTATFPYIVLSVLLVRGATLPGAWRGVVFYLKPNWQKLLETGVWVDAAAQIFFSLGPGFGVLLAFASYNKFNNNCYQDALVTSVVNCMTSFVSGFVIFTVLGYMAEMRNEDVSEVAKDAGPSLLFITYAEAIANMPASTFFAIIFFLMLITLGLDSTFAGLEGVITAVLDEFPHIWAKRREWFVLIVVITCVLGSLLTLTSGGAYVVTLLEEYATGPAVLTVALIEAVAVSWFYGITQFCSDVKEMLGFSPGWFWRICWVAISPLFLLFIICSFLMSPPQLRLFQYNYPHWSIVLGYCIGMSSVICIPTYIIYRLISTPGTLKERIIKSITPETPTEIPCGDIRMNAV
Sequence of Sodium-dependent serotonin transporter (Rattus norvegicus) (P31652 whole entry): as above

Ki [2] [nM] | Ki [4] [nM] | other results | Structure (SMILES)
3.4 |  | inhibition [1]: 31% | CSc1ccc(NC(=O)Nc2ccc(OC(CCN(C)C)c3ccccc3)cc2)cc1C(F)(F)F (centres undefined)
 |  | inhibition [1]: 1%; inhibition [3]: 15% | CN(C)CCC(Oc1ccc(NC(=O)Nc2ccc3ccn(C)c3c2)cn1)c1ccccc1 (centres undefined)
3.3 | 96.4 |  | COc1ccc(NC(=O)Nc2ccc(OC(CCN(C)C)c3ccccc3)cc2)cc1C(F)(F)F (centres undefined)
1.7 | 62 | CLH (Liver): 0.03 mL/min | CN(C)CCC(Oc1ccc(NC(=O)Nc2ccc3ccccc3c2)cc1)c1ccccc1 (centres undefined)
2.8 |  | inhibition [1]: 38% | COc1cc(NC(=O)Nc2ccc(Cl)c(Cl)c2)ccc1OC(CCN(C)C)c1ccccc1 (centres undefined)
2.9 | 135 |  | CN(C)CCC(Oc1ccc(NC(=O)Nc2ccc(Cl)c(Cl)c2)cc1)c1ccccc1 (centres undefined)
15.9 | 9 | Papp A→B at 50 µM [5]: 5.8 ×10⁻⁶ cm/s; efflux ratio at 50 µM (in vitro): 5.3 | CN(C)CCC(Oc1ccc(NC(=O)Nc2ccc3c(ccn3C)c2)cc1)c1ccccc1 (centres undefined)
152 | 15.9 |  | COc1ccc(C(=O)Nc2ccc(OC(CCN(C)C)c3ccccc3)cc2)cc1Cl (centres undefined)
 |  | inhibition [1]: -5%; inhibition [3]: 7% | CN(C)CCC(Oc1ccc(NC(=O)Nc2ccc3c(ccn3C)c2)cn1)c1ccccc1 (centres undefined)
2.4 | 121 |  | Cc1ccc(NC(=O)Nc2ccc(OC(CCN(C)C)c3ccccc3)cc2)cc1I (centres undefined)
 |  | inhibition [1]: 3%; inhibition [3]: 43% | CN(C)CCC(Oc1ccc(NC(=O)Nc2ccc3ccccc3c2)cn1)c1ccccc1 (centres undefined)
57.1 | 65.3 | CLH (Liver microsome): 0.65 mL/min; Papp A→B at 50 µM [5]: 11.3 ×10⁻⁶ cm/s; efflux ratio at 50 µM (in vitro): 1.1 | CN(C)CCC(Oc1ccc(NC(=O)c2ccc(Cl)c(Cl)c2)cc1)c1ccccc1 (centres undefined)
10.9 | 19.3 |  | CN(C)CCC(Oc1ccc(NC(=O)Nc2ccc3ccn(C)c3c2)cc1)c1ccccc1 (centres undefined)
16.3 | 31 |  | COc1cc(NC(=O)Nc2ccc(OC(CCN(C)C)c3ccccc3)cc2)ccc1Cl (centres undefined)
87.6 | 28.2 |  | CN(C)CCC(Oc1cccc(NC(=O)Nc2ccc3ccccc3c2)c1)c1ccccc1 (centres undefined)
10.2 | 102 |  | CN(C)CCC(Oc1ccc(N2CCN(c3ccc(Cl)c(Cl)c3)C2=O)cc1)c1ccccc1 (centres undefined)
11.2 | 41.1 | CLH (Liver microsome): 0.68 mL/min; Papp A→B at 50 µM [5]: 7.5 ×10⁻⁶ cm/s; efflux ratio at 50 µM (in vitro): 2.2 | COc1ccc(NC(=O)Nc2ccc(OC(CCN(C)C)c3ccccc3)cc2)cc1Cl (centres undefined)
 | 4 | inhibition [3]: 53% | CN(C)CCC(Oc1ccc(NC(=O)Nc2ccc3nccn3c2)cc1)c1ccccc1 (centres undefined)
78.9 | 89.6 | efflux ratio at 50 µM (in vitro): 1.6 | CN(C)CCC(Oc1ccc(NC(=O)N(C)c2ccc(Cl)c(Cl)c2)cc1)c1ccccc1 (centres undefined)
10.7 | 37.9 |  | CCn1ccc2cc(NC(=O)Nc3ccc(OC(CCN(C)C)c4ccccc4)cc3)ccc21 (centres undefined)
6.2 | > 10000 |  | O=C(Nc1cccnc1)Nc1ccc2ccccc2c1
90.6 | 22.3 |  | COc1ccc(C(=O)Nc2ccc(OC(CCN(C)C)c3ccccc3)cc2)cc1C(F)(F)F (centres undefined)
45.3 | 34.6 | CLH (Liver microsome): 0.59 mL/min; Papp A→B at 50 µM [5]: 19.9 ×10⁻⁶ cm/s; efflux ratio at 50 µM (in vitro): 0.7 | Cc1ccc(C(=O)Nc2ccc(OC(CCN(C)C)c3ccccc3)cc2)cc1Cl (centres undefined)
652 | 9.4 |  | CN(C)CCC(Oc1cccc(NC(=O)Nc2ccc3c(ccn3C)c2)c1)c1ccccc1 (centres undefined)
0.6 | 61.4 | CLH (Liver microsome): 0.06 mL/min; CLH (Liver): 0.9 mL/min | Cc1ccc(NC(=O)Nc2ccc(OC(CCN(C)C)c3ccccc3)cc2)cc1Cl (centres undefined)
124 | > 10000 |  | Cn1ccc2cc(NC(=O)Nc3cccnc3)ccc21
197 |  | inhibition [1]: -9% | COc1ccc(NC(=O)Nc2ccc(Cl)c(Cl)c2)cc1OC(CCN(C)C)c1ccccc1 (centres undefined)

Source: ChEMBL document CHEMBL3259720, “Design of novel multiple-acting ligands towards SERT and 5-HT2C receptors” (Bioorg Med Chem Lett, 2014)
